Tested on: BALB/c mice, house dust mite (HDM)-induced inflammation and AHR
Format: in vivo
Procedure: The impact of HPBCD on asthma-associated inflammation and bronchial hyperresponsiveness was investigated in a mouse model of airway inflammation and hyperresponsiveness.
Six to seven mice per group were tested. Two-tailed Mann-Whitney test were performed with p-values of *P<0.05, **P<0.01 in two independent experiments.
Two intranasal instillations of house dust mite were performed on days 0 and 7 to induce the migration of specific memory CD4+ T-cells into lung parenchyma, followed by a challenge instillation on day 14. […] The last house dust mite instillation was preceded by two days of HPBCD or PBS inhalations and followed by three inhalations until sacrifice (FIG. 1A). […] Airway responsiveness was evaluated by exposing animals to increasing doses of inhaled methacholine and by measuring Newtonian resistances representing the resistance of central or conducting airways. […] The bronchoalveolar lavage fluid (BALF) was then recovered and analyzed for cell content. […] The effect of HPBCD inhalation on T-cell numbers in lung parenchyma was investigated by flow cytometry.
Males BALB/c mice of 6 to 8 weeks old were purchased from Janvier Labs (Saint-Berthevin, France). All mice were bred and housed in University facilities. All experiences and protocols were previously approved by local ethic (animal care and use) committee from the University of Liege.
Mice were lightly isoflurane-anesthetized and received an intra-nasal (i.n) instillation of HDM extract (100 μg; 50 μl) in endotoxin-free saline on days 0, 7 and 14. Mice were subjected to inhalation (generated by ultrasonic nebulizer (Devilbiss 2000)) of HPBCD 10 mM or endotoxin-free saline for 40 minutes between day 12 and 16. On day 14, they received the inhalation 1 h before the last i.n. instillation of HDM. After measurement of bronchial responsiveness using the FlexiVent System, mice were sacrificed on day 17. Mice submitted to ovalbumin as allergen were i.p injected with 10 mcg ovalbumin grade 5 and exposed to ovalbumin grade 3 by inhalation between day 21 and 25. Mice were treated with HPBCD 10 mM given by inhalation between day 19 and 25. After measurement of bronchial responsiveness using the FlexiVent System, mice were sacrificed on day 26.
Mice were anesthetized by intraperitoneal injection with a mixture of ketamine (10 mg/ml, Merial, Brussel, Belgium) and xylazine (1 mg/ml, VMD, Arendonk, Belgium). A tracheotomy was performed by insertion of a 20 gauge polyethylene catheter into the trachea. Mice were ventilated with a flexiVent small animal Ventilator® (SCIREQ, Montreal, Canada) as previously described (18). Respiratory parameters following methacholine challenge (3, 6, and 12 gr/l (or 24 gr/l)) were evaluated using a 3 sec broadband signal to measure input impedance from 1 to 20.5 Hz and to calculate constant-phase model parameters (Quick-prime 3). Newtonian resistance (Rn) was the main parameter measured during the challenge.
Mice were sacrificed and a bronchoalveolar lavage was performed using PBS-EDTA 0.05 mM (Calbiochem, Darmstadt, Germany). Cells were recovered by gentle manual aspiration. After centrifugation of bronchoalveolar fluid (BALF) (1200 rpm; 10 min; 4° C.), the cell pellet was resuspended in 0.5 ml PBS-EDTA 0.05 mM. The differential cell counts were performed on cytocentrifuged preparations (Cytospin) after Diff-Quick (Dade, Belgium) staining.
Left lung was excised and snap frozen in liquid nitrogen. Right lung was infused with 4% paraformaldehyde, embedded in paraffin and used for histology. Sections of 5 μm thickness were cut off from paraffin and were stained with haematoxylin-eosin to estimate the extent of inflammation (18) and with Alcian blue (mucin stain).
To obtain single-lung-cell suspensions, lungs were perfused with 10 ml HBSS through the right ventricle, razor-cut into small pieces and digested for 1 hour at 37° C. in 1 mg/ml collagenase A (Roche) and 0.05 mg/ml DNasel (Roche) in HBSS. […]

Compound: CC(O)COC[C@H]1O[C@@H]2O[C@H]3[C@H](O)[C@@H](O)[C@@H](O[C@H]4[C@H](O)[C@@H](O)[C@@H](O[C@H]5[C@H](O)[C@@H](O)[C@@H](O[C@H]6[C@H](O)[C@@H](O)[C@@H](O[C@H]7[C@H](O)[C@@H](O)[C@@H](O[C@H]8[C@H](O)[C@@H](O)[C@@H](O[C@H]1[C@H](O)[C@H]2O)O[C@@H]8COCC(C)O)O[C@@H]7COCC(C)O)O[C@@H]6COCC(C)O)O[C@@H]5COCC(C)O)O[C@@H]4COCC(C)O)O[C@@H]3COCC(C)O (stereo partly drawn) [HPBCD, 2-hydroxypropyl-beta-cyclodextrin]
- airway responsiveness to methacholine (Newtonian resistance) (HPBCD 10 mM inhalation vs PBS, HDM-challenged mice, FIG. 1B): significantly decreased
- extent of inflammation around the bronchi (HPBCD vs placebo, FIG. 1D): reduced
- number of Alcian blue positive mucus producing epithelial cells (HPBCD vs placebo, FIG. 1E): reduced
- eosinophilic inflammation in BALF (HPBCD-exposed vs placebo, FIG. 1C): significantly decreased
- number of TH2 cells (CD3+CD4+T1ST2+ ICOS+) in lung parenchyma (mouse, in vivo): nor the number of TH2 cells (CD3+CD4+T1ST2+ ICOS+) were modified
- number of total CD4+ T-cells (CD3+CD4+) in lung parenchyma (mouse, in vivo): Neither the number of total CD4+ T-cells (CD3+CD4+) nor the number of TH2 cells (CD3+CD4+T1ST2+ ICOS+) were modified

Reference: patent US20210386668A1, “Cyclodextrin for use in the treatment and prevention of late phase bronchoconstriction in allergen-induced asthma” (Universite de Liege, priority 2020, published 2021)
